In US11884676B2, “Substituted pyrimido[1,2-b]pyridazines as positive allosteric modulators of the muscarinic acetylcholine receptor M4” (Vanderbilt University, priority 2020, dated 2024):
pEC50: −log10 of the molar value.

Molecular target: T1, Human M4 (Homo sapiens, UniProt P08173)
T1 construct: expressed in transfected cells
T1 sequence (P08173 1-479): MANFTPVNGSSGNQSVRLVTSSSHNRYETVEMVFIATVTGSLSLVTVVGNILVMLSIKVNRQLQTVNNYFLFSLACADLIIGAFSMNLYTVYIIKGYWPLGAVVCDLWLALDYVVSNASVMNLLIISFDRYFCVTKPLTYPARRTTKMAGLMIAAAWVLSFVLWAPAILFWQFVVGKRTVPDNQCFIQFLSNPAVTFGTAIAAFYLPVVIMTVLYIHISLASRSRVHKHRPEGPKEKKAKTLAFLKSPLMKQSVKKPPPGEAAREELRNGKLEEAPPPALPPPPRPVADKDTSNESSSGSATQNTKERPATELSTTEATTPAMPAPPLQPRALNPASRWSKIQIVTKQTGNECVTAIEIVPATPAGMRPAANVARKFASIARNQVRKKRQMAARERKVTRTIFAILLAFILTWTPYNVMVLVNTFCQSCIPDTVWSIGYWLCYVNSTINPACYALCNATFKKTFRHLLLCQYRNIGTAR
Assay: mAChR M4 cell-based functional assay (calcium flux, PAM mode)
Conditions: hM4-Gqi5 CHO-K1 cells; for Emax at 30 µM: CHO-K1, % ACh maximum at 30 μM; for pEC50: concentration-dependent increase in the EC20 acetylcholine response
Outline: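 CHO-K1 cells stably co-expressing human M4 and chimeric Gqi5, Fluo-4 loaded; compound added first (11-point, 1:3 CRC), then EC20 acetylcholine at 144 s and EC80 at 230 s. PAM activity read on FDSS as concentration-dependent increase of EC20 ACh calcium response; EC50 and Emax from four-parameter logistic fit.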

| Emax at 30 µM [%] | pEC50 | Compound |
| --- | --- | --- |
| 87 | 7.14 | [2H]C1(Oc2ccc3c(c2)OC([2H])([2H])C([2H])([2H])O3)CCN(c2nn3c(=O)cc(C(F)(F)F)nc3c(C)c2C)CC1 [Compound 95, 7-(4-((2,3-dihydrobenzo[b][1,4]dioxin-6-yl-2,2,3,3-d4)oxy)piperidin-1-yl-4-d)-8,9-dimethyl-2-(trifluoromethyl)-4H-pyrimido[1,2-b]pyridazin-4-one] |
| 85 | 7.00 | [2H]C1(Oc2ccc3c(c2)OC([2H])([2H])C([2H])([2H])O3)CCN(c2nn3c(=O)cc(C(C)C)nc3c(C)c2C)CC1 [Compound 96, 7-(4-((2,3-dihydrobenzo[b][1,4]dioxin-6-yl-2,2,3,3-d4)oxy)piperidin-1-yl-4-d)-2-isopropyl-8,9-dimethyl-4H-pyrimido[1,2-b]pyridazin-4-one] |
| 78 | 6.37 | [2H]C1(Oc2ccc3c(c2)OC([2H])([2H])C([2H])([2H])O3)CCN(c2nn3c(=O)ccnc3c(C3CC3)c2C)CC1 [Compound 97, 9-cyclopropyl-7-(4-((2,3-dihydrobenzo[b][1,4]dioxin-6-yl-2,2,3,3-d4)oxy)piperidin-1-yl-4-d)-8-methyl-4H-pyrimido[1,2-b]pyridazin-4-one] |
| 90 | 7.19 | [2H]C1(Oc2ccc3c(c2)OC([2H])([2H])C([2H])([2H])O3)CCN(c2nn3c(=O)cc(CC)nc3c(C)c2C)CC1 [Compound 98, 7-(4-((2,3-dihydrobenzo[b][1,4]dioxin-6-yl-2,2,3,3-d4)oxy)piperidin-1-yl-4-d)-2-ethyl-8,9-dimethyl-4H-pyrimido[1,2-b]pyridazin-4-one] |
| 90 | 6.88 | [2H]C1([2H])Oc2ccc(OC3CCN(c4nn5c(=O)cc(C(C)C)nc5c(C)c4C)CC3)cc2OC1([2H])[2H] [Compound 99, 7-(4-((2,3-dihydrobenzo[b][1,4]dioxin-6-yl-2,2,3,3-d4)oxy)piperidin-1-yl)-2-isopropyl-8,9-dimethyl-4H-pyrimido[1,2-b]pyridazin-4-one] |
| 89 | 7.28 | [2H]C1([2H])Oc2ccc(OC3CCN(c4nn5c(=O)cc(CC)nc5c(C)c4C)CC3)cc2OC1([2H])[2H] [Compound 100, 7-(4-((2,3-dihydrobenzo[b][1,4]dioxin-6-yl-2,2,3,3-d4)oxy)piperidin-1-yl)-2-ethyl-8,9-dimethyl-4H-pyrimido[1,2-b]pyridazin-4-one] |
| 81 | 5.83 | [2H]C1(Oc2ccc3c(c2)OC([2H])([2H])C([2H])([2H])O3)CCN(c2nn3c(=O)cc(CC4CCCC4)nc3c(C)c2C)CC1 [Compound 101, 2-(cyclopentylmethyl)-7-(4-((2,3-dihydrobenzo[b][1,4]dioxin-6-yl-2,2,3,3-d4)oxy)piperidin-1-yl-4-d)-8,9-dimethyl-4H-pyrimido[1,2-b]pyridazin-4-one] |
| 94 | 6.77 | [2H]C1(Oc2ccc3c(c2)OC([2H])([2H])C([2H])([2H])O3)CCN(c2nn3c(=O)ccnc3c(C)c2COC)CC1 [Compound 102, 7-(4-((2,3-dihydrobenzo[b][1,4]dioxin-6-yl-2,2,3,3-d4)oxy)piperidin-1-yl-4-d)-8-(methoxymethyl)-9-methyl-4H-pyrimido[1,2-b]pyridazin-4-one] |
| 78 | 6.34 | [2H]C1(Oc2ccc3c(c2)OC([2H])([2H])C([2H])([2H])O3)CCN(c2nn3c(=O)ccnc3c(COC)c2C)CC1 [Compound 103, 7-(4-((2,3-dihydrobenzo[b][1,4]dioxin-6-yl-2,2,3,3-d4)oxy)piperidin-1-yl-4-d)-9-(methoxymethyl)-8-methyl-4H-pyrimido[1,2-b]pyridazin-4-one] |
| 87 | 5.85 | [2H]C1(Oc2ccc3c(c2)OC([2H])([2H])C([2H])([2H])O3)CCN(c2nn3c(=O)ccnc3c(C)c2C2CC2)CC1 [Compound 104, 8-cyclopropyl-7-(4-((2,3-dihydrobenzo[b][1,4]dioxin-6-yl-2,2,3,3-d4)oxy)piperidin-1-yl-4-d)-9-methyl-4H-pyrimido[1,2-b]pyridazin-4-one] |
| 81 | 5.77 | [2H]C1([2H])Oc2ccc(OC3CCN(c4nn5c(=O)ccnc5c(C)c4C4CC4)CC3)cc2OC1([2H])[2H] [Compound 105, 8-cyclopropyl-7-(4-((2,3-dihydrobenzo[b][1,4]dioxin-6-yl-2,2,3,3-d4)oxy)piperidin-1-yl)-9-methyl-4H-pyrimido[1,2-b]pyridazin-4-one] |
| 99 | – | Cc1cc2nccc(=O)n2nc1N1CC[C@H](Oc2ccc3c(c2)OCCO3)C[C@H]1C [Compound 108, 7-((2R,4S)-4-((2,3-Dihydrobenzo[b][1,4]dioxin-6-yl)oxy)-2-methylpiperidin-1-yl)-8-methyl-4H-pyrimido[1,2-b]pyridazin-4-one] |
| 97 | 7.72 | [2H]C1(Oc2ccc3c(c2)OC([2H])([2H])C([2H])([2H])O3)CCN(c2nn3c(=O)cc(COC)nc3cc2C)CC1 [Compound 109, 7-(4-((2,3-dihydrobenzo[b][1,4]dioxin-6-yl-2,2,3,3-d4)oxy)piperidin-1-yl-4-d)-2-(methoxymethyl)-8-methyl-4H-pyrimido[1,2-b]pyridazin-4-one] |
| 80 | 7.36 | [2H]C1(Oc2ccc3c(c2)OC([2H])([2H])C([2H])([2H])O3)CCN(c2nn3c(=O)cc(COC)nc3c(C)c2C)CC1 [Compound 110, 7-(4-((2,3-dihydrobenzo[b][1,4]dioxin-6-yl-2,2,3,3-d4)oxy)piperidin-1-yl-4-d)-2-(methoxymethyl)-8,9-dimethyl-4H-pyrimido[1,2-b]pyridazin-4-one] |
| 106 | 7.17 | [2H]C1([2H])Oc2ccc(O[C@@H]3CCN(c4nn5c(=O)ccnc5cc4C)C[C@@H]3F)cc2OC1([2H])[2H] [Compound 111, 7-((3S,4R)-4-((2,3-dihydrobenzo[b][1,4]dioxin-6-yl-2,2,3,3-d4)oxy)-3-fluoropiperidin-1-yl)-8-methyl-4H-pyrimido[1,2-b]pyridazin-4-one] |
| 108 | 7.12 | [2H]C1([2H])Oc2ccc(O[C@H]3CCN(c4nn5c(=O)ccnc5cc4C)C[C@H]3F)cc2OC1([2H])[2H] [Compound 112, 7-((3R,4S)-4-((2,3-dihydrobenzo[b][1,4]dioxin-6-yl-2,2,3,3-d4)oxy)-3-fluoropiperidin-1-yl)-8-methyl-4H-pyrimido[1,2-b]pyridazin-4-one] |
| 71 | 5.88 | Cc1cc2nccc(=O)n2nc1N1CC[C@@H](Oc2ccc3c(c2)OCCO3)C[C@H]1C [Compound 116, 7-((2R,4R)-4-((2,3-dihydrobenzo[b][1,4]dioxin-6-yl)oxy)-2-methylpiperidin-1-yl)-8-methyl-4H-pyrimido[1,2-b]pyridazin-4-one] |
| 93 | 6.49 | [2H]C1([2H])Oc2ccc(O[C@H]3CCN(c4nn5c(=O)ccnc5c(C)c4C)C[C@@H]3F)cc2OC1([2H])[2H] [Compound 117, 7-((3S,4S)-4-((2,3-dihydrobenzo[b][1,4]dioxin-6-yl-2,2,3,3-d4)oxy)-3-fluoropiperidin-1-yl)-8,9-dimethyl-4H-pyrimido[1,2-b]pyridazin-4-one] |
| 115 | 7.47 | [2H]C1([2H])Oc2ccc(O[C@@H]3CCN(c4nn5c(=O)ccnc5c(C)c4C)C[C@@H]3F)cc2OC1([2H])[2H] [Compound 118, 7-((3S,4R)-4-((2,3-dihydrobenzo[b][1,4]dioxin-6-yl-2,2,3,3-d4)oxy)-3-fluoropiperidin-1-yl)-8,9-dimethyl-4H-pyrimido[1,2-b]pyridazin-4-one] |
| 114 | 7.29 | [2H]C1([2H])Oc2ccc(O[C@H]3CCN(c4nn5c(=O)ccnc5c(C)c4C)C[C@H]3F)cc2OC1([2H])[2H] [Compound 119, 7-((3R,4S)-4-((2,3-dihydrobenzo[b][1,4]dioxin-6-yl-2,2,3,3-d4)oxy)-3-fluoropiperidin-1-yl)-8,9-dimethyl-4H-pyrimido[1,2-b]pyridazin-4-one] |
| 106 | 6.79 | [2H]C1([2H])Oc2ccc(O[C@H]3CCN(c4nn5c(=O)cc(COC)nc5c(C)c4C)C[C@@H]3F)cc2OC1([2H])[2H] [Compound 120, 7-((3S,4S)-4-((2,3-dihydrobenzo[b][1,4]dioxin-6-yl-2,2,3,3-d4)oxy)-3-fluoropiperidin-1-yl)-2-(methoxymethyl)-8,9-dimethyl-4H-pyrimido[1,2-b]pyridazin-4-one] |
| 111 | 7.38 | [2H]C1([2H])Oc2ccc(O[C@@H]3CCN(c4nn5c(=O)cc(COC)nc5c(C)c4C)C[C@@H]3F)cc2OC1([2H])[2H] [Compound 121, 7-((3S,4R)-4-((2,3-dihydrobenzo[b][1,4]dioxin-6-yl-2,2,3,3-d4)oxy)-3-fluoropiperidin-1-yl)-2-(methoxymethyl)-8,9-dimethyl-4H-pyrimido[1,2-b]pyridazin-4-one] |
